Measured values as given in patent publication US20060194315A1, “Compositions and methods for the control, differentiaton and/or manipulation of pluripotent cells through a gamma-secretase signaling pathway” (priority 2003, published 2006).

Assays:
[1] = tested on: hES cells (BGN1 and BGN2); assay: Flow cytometry of SSEA4 and Notch1 expression in treated hES cell cultures; assay type: cell-based, human; settings: for proportion of cells in Fr. A (SSEA4high/Notch1high, undifferentiated cells): 50 μM DAPT vs DMSO, four experiments
Experimental: Cultures were harvested by Collagenase/trypsin passaging methods described above as an essentially single cell suspension, washed in 1×PBS, and fixed in 1% paraformaldehyde for 25 minutes on ice. The cells were washed in 1×PBS, blocked in 3% goat serum, and stained with primary antibodies for 30 minutes. to overnight at 4° C. The cells were washed in 1×PBS three times and stained with Secondary FITC or PE conjugated antibodies (Jackson Immunochemicals, Inc.) for 1 hour to overnight at 4° C. The cells were washed with 1×PBS three times and analyzed on a CyAn flow cytometer (DakoCytomation, Inc.).
Inhibition of gamma-secretase reduces the number of spontaneously differentiated cells in the culture. […] These experiments are diagramed in FIG. 9. hES cell master cultures were maintained with the manual passaging technique. A combination of Collagenase type IV treatment and Trypsin/EDTA exposure was used to passage the hES cells as single cells for no more than 10-12 passages before SSEA4 selection for early trypsin cultures, or were passaged more than 40 passages for late trypsin cultures. The cultures were selected for SSEA4 epitope expression using magnetic selection of SSEA4 antibody-stained cells. The retained fraction from the sort was plated and subjected to the treatment conditions. In some instances, SSEA4 selected cells were expanded for one or two passages. Treatment conditions were 50 μM DAPT, or 0.5% DMSO as carrier control. In some cases, these conditions were compared to untreated cells. The treated cultures were analyzed for SSEA4 expression by flow cytometry, immunohistochemistry, and EB formation.

hES cells [2] = assay: Embryoid body formation from late trypsin passaged hES cultures; assay type: cell-based, human; settings: late trypsin passaged cultures maintained in DAPT vs DMSO vs untreated
Experimental: Embryoid bodies were formed from cultures that had been growing on Matrigel and exposed to the different treatments. These cultures were exposed to Collagenase type IV or Dispase (Gibco) for 10 minutes at 37° C. until a monolayer of cells lifted off of the dish. The monolayer was passed through a pipette tip until it was broken down to small clumps of approximately 500-1000 cells. These clumps were washed in 15% FBS/1% MEM nonessential amino acids/1 mM L-glutamine/penicillin (0.5 U/ml) and streptomycin (0.5 U/ml) twice by allowing them to settle by gravity, removing the supernatant, and resuspending the loose pellet. The cells were plated onto agarose coated Petri dishes in the same medium used for washing and allowed to grow for up to 10 days.
Inhibition of gamma-secretase reduces the number of spontaneously differentiated cells in the culture. […] These experiments are diagramed in FIG. 9. hES cell master cultures were maintained with the manual passaging technique. A combination of Collagenase type IV treatment and Trypsin/EDTA exposure was used to passage the hES cells as single cells for no more than 10-12 passages before SSEA4 selection for early trypsin cultures, or were passaged more than 40 passages for late trypsin cultures. […] The treated cultures were analyzed for SSEA4 expression by flow cytometry, immunohistochemistry, and EB formation.

hES cells [3] = assay: SSEA4 immunohistochemistry of treated hES cell cultures; assay type: cell-based, human; settings: 50 μM DAPT vs DMSO treated cultures
Experimental: Cells on chamber slides were rinsed once with 1× PBS and fixed for 30 minutes in 4% PFA/4% sucrose in PBS pH7.4 at room temperature for surface staining, or in ice cold 100% methanol for 5 minutes at −20° C. followed by 4% PFA/4% sucrose in PBS for 10 minutes at room temperature for intracellular staining using the bTAN20 antibody. They were rinsed 3× in 1×PBS and blocked in 3% goat serum/1% PVP with or without 0.3% Triton-X100 in PBS for 30 minutes at 4° C. Primary antibodies were diluted in blocking solution and this solution was applied overnight at 4° C. to the cells. Cells were rinsed in 1×PBS and washed overnight with 3 changes of 1×PBS. Secondary antibodies were applied in blocking solution for 2 hours at 4° C. They were rinsed in 1×PBS then washed overnight with 3 changes of 1×PBS. Cell nuclei were stained with DAPI at 1 μg/ml in the first rinse for 10 minutes. The chambers were removed and slides were mounted in VectaShield mounting medium.
Inhibition of gamma-secretase reduces the number of spontaneously differentiated cells in the culture. […] These experiments are diagramed in FIG. 9. hES cell master cultures were maintained with the manual passaging technique. […] The treated cultures were analyzed for SSEA4 expression by flow cytometry, immunohistochemistry, and EB formation.

gamma-secretase complex = biological target: T1, gamma-secretase complex (Homo sapiens, UniProt P49768); assay: Western blot for gamma-secretase cleaved Notch1 (NICD) in hES cells harvested with Trypsin/EDTA; assay type: cell-based; settings: BGN1 hES cells grown in 50 μM DAPT for 3 days, vs 0.5% DMSO
T1 construct: endogenous in cells; host or cells: BGN1 human embryonic stem cells, grown on mouse embryonic fibroblast feeders
T1 sequence (Q92542 34-709, other chains not shown): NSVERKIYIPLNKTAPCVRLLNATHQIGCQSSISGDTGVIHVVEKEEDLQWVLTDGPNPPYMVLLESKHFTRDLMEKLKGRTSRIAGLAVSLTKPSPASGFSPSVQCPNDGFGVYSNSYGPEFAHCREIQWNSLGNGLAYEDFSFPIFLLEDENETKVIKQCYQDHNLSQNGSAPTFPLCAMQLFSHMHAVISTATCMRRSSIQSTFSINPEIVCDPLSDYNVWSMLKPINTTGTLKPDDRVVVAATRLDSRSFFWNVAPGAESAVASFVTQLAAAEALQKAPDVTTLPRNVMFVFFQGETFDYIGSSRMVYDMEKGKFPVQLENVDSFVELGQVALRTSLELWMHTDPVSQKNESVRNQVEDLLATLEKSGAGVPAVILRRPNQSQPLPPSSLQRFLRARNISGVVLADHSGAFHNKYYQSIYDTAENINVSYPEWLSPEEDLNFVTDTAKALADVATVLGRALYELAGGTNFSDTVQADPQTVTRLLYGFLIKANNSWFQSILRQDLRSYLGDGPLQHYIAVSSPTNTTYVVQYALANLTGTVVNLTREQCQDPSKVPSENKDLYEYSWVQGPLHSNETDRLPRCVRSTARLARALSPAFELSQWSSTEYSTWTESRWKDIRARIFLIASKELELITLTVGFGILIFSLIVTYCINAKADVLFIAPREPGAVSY
T1 sequence (Q96BI3 whole entry, other chains not shown, further chain): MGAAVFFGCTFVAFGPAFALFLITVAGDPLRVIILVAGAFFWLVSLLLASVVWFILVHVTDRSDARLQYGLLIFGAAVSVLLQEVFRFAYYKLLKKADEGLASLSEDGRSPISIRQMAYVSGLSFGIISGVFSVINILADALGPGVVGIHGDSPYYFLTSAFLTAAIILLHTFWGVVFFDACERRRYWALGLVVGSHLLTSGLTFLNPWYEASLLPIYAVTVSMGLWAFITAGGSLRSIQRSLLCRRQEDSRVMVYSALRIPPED
T1 sequence (Q9NZ42 whole entry, other chains not shown, further chain): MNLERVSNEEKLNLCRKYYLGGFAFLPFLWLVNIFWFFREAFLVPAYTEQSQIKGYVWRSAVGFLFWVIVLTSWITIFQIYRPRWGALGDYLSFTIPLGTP
Experimental: Western blots were done using standard procedures. In brief, protein content of samples was determined with a BCA micro protein assay (Pierce, Rockford, Ill.) and equal amounts of protein were loaded onto precast polyacrylamide mini-gels (Gradipore, Australia). Proteins were transferred to nylon membranes which were then incubated for 30 minutes in blocking buffer (tris buffered saline/0.1% tween 20/5% powdered milk). Primary antibodies were diluted in blocking buffer at the following ratios: bTAN20 and C651.6bHN were diluted 1:10; anti-Oct4 was diluted 1:100; anti-presenilin, nicastrin, cleaved NOTCH1 were diluted 1:1000 and anti-HDAC was used at a concentration of 0.5 μg/ml. Primary antibodies were incubated overnight at 4° C., followed by two five-minute washes and one 15-minute wash in tris-buffered saline/0.1% tween 20. Secondary antibodies were diluted in blocking buffer and incubated with the membranes for 45 minutes at room temperature. Washes were repeated as above and a final 15-minute wash was done with tris-buffered saline. ECL (Amersham, Buckinghamshire, England) was performed according to the manufacturer's instructions and autoradiographs were made.
To address the possibility that trypsin non-specifically generated the 110 kD Notch1 band, DAPT, a potent and specific gamma-secretase inhibitor, was used to treat the hES cells before harvesting. […]

Hes1 = assay: Real-time RT-PCR of Hes1 induction by EDTA in hES cells; assay type: cell-based, human
Experimental: Hes1 induction by EDTA treatment was monitored by real-time RT-PCR. Cultures of […] on Matrigel-coated 24-well plates were treated with either 0.5% DMSO or 50 μM DAPT in CM for 4 hours to overnight before induction by EDTA exposure. The wells were exposed to 2 mM EDTA in CM (with DMSO or DAPT) for 15 minutes at 37° C. EDTA was neutralized by addition of 4.9 mM CaCl2 and incubated for a further 1.5 hours. The cells were harvested with Trizol and RNA was extracted as described above. Real-time PCR was performed using TaqMan primers and probes (Applied Biosystems, Inc.) for Hes1 (primer sequences: […] ID NO: 17); […] ID NO:18); probe […] NO:19)) and normalized to GAPDH (kit from Applied Biosystems, Inc; cat. no. 402869). Reactions were run and monitored on an ABI7700 Sequence Detection System (Applied Bioysytems, Inc). Data was analyzed as described in Pfaffl et al., 2002 Nucleic Acids Research 30(9): […]. REST-XL (version 2) software was used to determine relative quantification of Hes1 gene expression. The data were expressed as the ratio of GAPDH normalized Hes1 expression of EDTA-treated to EDTA-untreated samples. DAPT treated cultures were compared to DMSO treated cultures. These values were log transformed for statistical analysis by t-test and graphed in Excel.

[4] = inhibitor treatment vs DMSO, 4 experiments, BGN1 and BGN2

SMILES	proportion of cells in Fr. A (SSEA4high/Notch1high, undifferentiated cells) ([1]; BGN1 and BGN2)	proportion of cells in Fr. A (SSEA4high/Notch1high, undifferentiated cells) ([1]; BGN1 and BGN2, listed as inhibitor)	cells in Fr. B (SSEA4low-neg/Notch1pos, differentiating cells) ([1]; 50 μM DAPT, average of four experiments, BGN1 and BGN2, DMSO control 30%, p=0.0243) [%]	proportion of Fr. B (SSEA4low-neg/Notch1pos) cells in culture, in words ([1]; DAPT vs DMSO and untreated, triplicate cultures)	number of cells in Fr. A [1, 4]	number of cells in Fr. B [1, 4]	morphology of embryoid bodies (hES cells [2])	homogeneity of SSEA4 expression (immunohistochemical stain) (hES cells [3])	generation of the NICD fragment (cleaved form of Notch1) upon Trypsin/EDTA exposure (gamma-secretase complex)	Hes1 induction by EDTA in the presence of the inhibitor (GAPDH normalized expression ratio) (Hes1; 50 μM DAPT 4 hours to overnight, 2 mM EDTA 15 minutes, three independent experiments)	reduction in Hes1 expression with inhibitor treatment, significance (Hes1; EDTA induction, DAPT vs DMSO, p=0.032, t-test)	Hes1 induction by EDTA exposure (Hes1; 2 mM EDTA 15 minutes, three independent experiments)
C[C@H](NC(=O)Cc1cc(F)cc(F)c1)C(=O)N[C@H](C(=O)OC(C)(C)C)c1ccccc1 [DAPT, N-[N-(3,5-Difluorophenacetyl-L-alanyl)]-S-phenylglycine t-Butyl Ester]	small but significant increase	significantly increased	15	reduced	remained unchanged	significantly reduced	returned the EBs to a cystic morphology	more homogenous	not generated	less than two-fold	significant	
O=C(O)CN(CCN(CC(=O)O)CC(=O)O)CC(=O)O [EDTA]												up to 10 fold
